Results taken from PubChem BioAssay (NCI).
Where “and” joins values, the source holds several entries; their conditions need not be identical. Equal values may be shown once.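 Step 1: Grow cells in 96-well plates. Step 2: Expose to compound for 48 hours at 5 concentrations. Step 3: Interpolate endpoints linearly; if unreached, use highest concentration. GI50 = concentration required for 50% inhibition of growth. The concentration for full growth arrest is given as TGI.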

Key:
Experiment in all cases: DTP human tumour cell line panel, 48 h
ACHN renal = tested on: ACHN renal
SF-268 CNS = tested on: SF-268 CNS
SF-295 CNS = tested on: SF-295 CNS
UACC-62 melanoma = tested on: UACC-62 melanoma
COLO 205 colon = tested on: COLO 205 colon
MOLT-4 leukemia = tested on: MOLT-4 leukemia
SK-MEL-2 melanoma = tested on: SK-MEL-2 melanoma
HOP-92 NSCLC = tested on: HOP-92 NSCLC
HOP-62 NSCLC = tested on: HOP-62 NSCLC
HCC-2998 colon = tested on: HCC-2998 colon

Compound | GI50 (ACHN renal) | TGI (ACHN renal) | GI50 (SF-268 CNS) | TGI (SF-268 CNS) | GI50 (SF-295 CNS) | TGI (SF-295 CNS) | GI50 (UACC-62 melanoma) | TGI (UACC-62 melanoma) | GI50 (COLO 205 colon) | TGI (COLO 205 colon) | GI50 (MOLT-4 leukemia) | TGI (MOLT-4 leukemia) | GI50 (SK-MEL-2 melanoma) [µM] | TGI (SK-MEL-2 melanoma) [µM] | TGI (HOP-92 NSCLC) [µM] | GI50 (HOP-62 NSCLC) | TGI (HOP-62 NSCLC) | GI50 (HCC-2998 colon) [µM] | TGI (HCC-2998 colon) [µM] | GI50 (HOP-92 NSCLC) [µM]
COc1cc(C(C)c2cc3c(cc2OCCOCCOc2cc4c(cc2C(C)c2cc(OC)c(OC)c(OC)c2)OCO4)OCO3)cc(OC)c1OC (stereo unspecified) | > 100 µM | > 100 µM | > 100 µM | > 100 µM | > 10 µM | > 100 µM | > 100 µM | > 100 µM | > 100 µM | > 100 µM | > 100 µM | > 100 µM | > 100 | > 100 | > 100 | > 100 µM | > 100 µM | > 100 | > 100 | 
O=C(O)c1cc2c3c(c1)[C@H]1C=CC[C@H]1CN3CC1CC=CC21 (stereo partly specified) |  | > 100 µM |  | > 100 µM |  | > 100 µM |  | > 100 µM |  | > 100 µM |  | > 100 µM |  | > 100 | > 100 |  | > 100 µM |  | > 100 | 
C[C@]1(O)CC(=O)[C@]2(O)C3=C(C=C[C@]2(O)C1)C(=O)c1c(O)cccc1C3=O | 0.5 µM | 1.73 µM | 5.16 µM | 20.5 µM | 18.3 µM | 34.4 µM | 1.86 µM | 3.91 µM | 0.229 µM | 0.584 µM | 1.12 µM | 3.98 µM | 2.47 | 5.56 | 2.9 | 15.6 µM | 42.6 µM | 7.59 | 20.7 | 1.51
COc1ccc(-c2ccc(=O)oc2-c2cc(OC)c(OC)c(OC)c2)cc1O | 0.135 µM | > 73.3 µM | 0.0606 µM | > 34.8 µM | 0.0157 µM | > 100 µM | < 0.0402 µM | > 100 µM | 2.21 µM | > 37.5 µM | 0.0512 µM | > 100 µM | 0.315 | > 100 | > 100 | 0.0199 µM | > 100 µM | 0.0379 | 0.426 | 
CCC(=O)[O-].CCC(=O)[O-].N.N.N.N.[Co+3].[O-][Cl+3]([O-])([O-])[O-] | > 100 µM | > 100 µM | > 100 µM | > 100 µM | > 100 µM | > 100 µM | > 100 µM | > 100 µM | > 100 µM | > 100 µM | > 100 µM | > 100 µM | > 100 | > 100 | > 100 | > 100 µM | > 100 µM | > 100 | > 100 | 27.2
CCCCCCCCCCCCCCCC[N+](C)(C)C | 0.332 µM and 1.44 µM | 1.61 µM and 4.03 µM | 0.177 µM and 1.21 µM | 0.483 µM and 3.12 µM | 0.305 µM and 0.716 µM | 1.36 µM and 2.38 µM | 0.258 µM and 1.43 µM | 1.16 µM and 3.38 µM | 0.16 µM and 1.19 µM | 0.295 µM and 2.75 µM | 0.157 µM and 1.17 µM | 0.346 µM and 2.8 µM | 0.314 | 1.17 | 0.353 | 0.198 µM and 1.33 µM | 0.54 µM and 3.07 µM | 1.71 | 3.73 | 0.0918
COc1cc(C)c(N(C)C(=O)CN(C)C)cc1Nc1nc(Nc2cccc(F)c2C(N)=O)c2cc[nH]c2n1 | > 25 µM | > 25 µM | > 25 µM | > 25 µM | > 25 µM | > 25 µM | > 25 µM | > 25 µM | 5.63 µM | > 25 µM | > 21.9 µM | > 25 µM | > 25 | > 25 | 16.2 | > 25 µM | > 25 µM | > 23.1 | > 25 | 0.645
O=c1cc(-c2ccccc2)oc2cc(OCc3cn(Cc4ccc(F)cc4)nn3)cc(O)c12 | 6.23 µM | > 100 µM | 4.32 µM | > 100 µM | 10.2 µM | 46.8 µM |  |  | > 100 µM | > 100 µM | > 100 µM | > 100 µM | 6.8 | 36.1 | 45.5 | 3.76 µM | 21.7 µM | > 100 | > 100 | 4.43
COc1ccc(-n2nc(C)c3c(Nc4ccc(NC(=O)Nc5cc(C(F)(F)F)ccc5F)cc4)ncnc32)cc1 | 2.92 µM | 42.9 µM | 3.24 µM | > 100 µM | 2.06 µM | 4.43 µM | 1.88 µM | 4.34 µM | 1.98 µM | 4.93 µM | 2.69 µM | 12.1 µM | 2.35 | 4.91 | 6.26 | 2.97 µM | 11.4 µM | 3.19 | 15.5 | 2.23
C/C(CC(=O)Nc1ccc(C)cc1)=N\NC(N)=S |  | > 100 µM |  | > 100 µM |  | > 100 µM |  | > 100 µM |  | > 100 µM |  | > 100 µM |  | > 100 | > 100 |  | > 100 µM |  | > 100 | 
O=c1c2ccccc2c(C=NCCNCCO)c2oc3ccccc3n12 | 3.54 µM | 14.9 µM | 3.63 µM | 15.8 µM | 3.72 µM | 13.6 µM | 11.6 µM | 23.8 µM | 3.27 µM | 15.8 µM | 1.73 µM | 11.7 µM | 21.3 | 50.6 | 26.9 | 13 µM | 25.6 µM | 13.1 | 25.8 | 11.7
CN1CCN(c2ccc(NC3=C(Cl)C(=O)c4ncccc4C3=O)cc2C(F)(F)F)CC1 | 1.48 µM | 2.8 µM | 3.3 µM | 14 µM | 16.6 µM | 30.4 µM | 1.88 µM | 3.81 µM | 1.89 µM | 4.63 µM | 0.304 µM | 2.67 µM | 3.32 | 8.79 | 3.03 | 17.4 µM | 37.1 µM | 7.51 | 20.8 | 1.58
Cc1cc2cc(Oc3ccnc(Nc4cccc(CS(=O)(=O)NCCN(C)C)c4)n3)ccc2[nH]1 | 7.22 µM | 20.3 µM | 3.93 µM | 17.3 µM | 8.04 µM | 21.5 µM | 3.85 µM | 14.4 µM | 4.47 µM | 16.9 µM | 2.1 µM | 7.06 µM | 11.5 | 25.7 | 5.68 | 7 µM | 21.6 µM | 11.6 | 25.2 | 1.78
